{"source": "paper PMC10313921", "about": "“A living ex vivo platform for functional, personalized brain cancer diagnosis” (Cell Reports Medicine, 2023)", "type_in_all_cases": "cell-based, human", "key": {"[1]": {"test_system": "PDIPG (low-passage pediatric patient-derived line)", "experiment": "Drug screening of PDIPG tumor foci on OBSCs", "conditions": "PDIPG on OBSCs", "experimental": "(§1) Tumor cells (0.17 μL, 25,000 cells) were seeded onto OBSCs 2h after slicing, with one tumor seeded in the center of each hemisphere for a total of two tumor foci per OBSC. BSM was changed 24h after slicing. Fluorescence images were taken 0 h, 24 h, and 96 h post-seeding for normalization of tumor size. Bioluminescence readouts were also taken at 0 h, 24 h, and 96 h post seeding for assessment of cell viability. Luciferin was added underneath the culture insert and allowed to incubate for 10 min before bioluminescence measurement on an AMI optical imaging system.\n(§2) Tumor cells were seeded onto OBSCs 2h after slicing as described above. One day after tumor seeding, six concentrations of each drug were diluted in the media underneath each culture insert, or XRad was applied using an X-Rad 320 Precision X-ray machine (n = 4 tumor foci per concentration; n ≥ 24 tumor foci per drug per cell line). Three days after treatment, the bioluminescence of live tumor cells was measured using an AMI optical imager (Spectral Instruments) and dose-response curves were generated. Tumor survival was normalized to day one tumor fluorescence and compared to an untreated control group.\n(§3) Several weighted parameters were factored into an overall drug sensitivity score.\n(§4) For DSS parameters 1–6, therapeutic windows were calculated by comparing OBSC toxicity and tumor response at the doses where tumor kill passed through the DSS parameter (Table S1 and S3). For DSS parameter 7, the therapeutic window was calculated by comparing the slopes through the tumor EC50 and the OBSC tox EC50. For DSS parameter 8, the therapeutic window was calculated by comparing the areas under tumor kill and OBSC tox curves. Normalized therapeutic window ratios for DSS parameters 1–8 within each drug-tumor-OBSC interaction were calculated in the following manner: within each window, values ranged from +1 to −1, where values approaching +1 signify increasing tumor kill relative to normal tissue toxicity, and values approaching −1 indicate agents where tumors remained highly viable while toxicity to the normal OBSC tissue was elevated. DSS parameters 9–11 were determined based on the behavior of the tumor in response to the drug, as defined above.\n(§5) All individually weighed parameters were added together to generate the DSS. Overall DSS from 0 to 100 signify increasing efficacy in tumor kill relative to OBSC toxicity, while scores from 0 to −100 describe scenarios in which tumors thrive more effectively than OBSCs for a given treatment. Dose-response values were calculated via linear interpolation of raw data, not from best-fit curve equations."}, "[2]": {"test_system": "PIS patient tumor tissue (intracranial sarcoma)", "experiment": "Drug screening of uncultured patient tumor tissue PIS on OBSCs", "conditions": "PIS patient tissue; scale -100 to +100", "experimental": "as §2\nTo engraft onto OBSCs, the cryopreserved/thawed or fresh brain tumor tissue was filtered through a 100 μm cell strainer. Each 50 mg of tissue was transfected with 1mL mcherry-FLuc Lentivirus at 1.5e7 vg/ml with 1μL polybrene for 4h at 37°C. After incubation, the brain tumor tissue was washed with PBS three times to remove the residual virus and reconstituted in PBS with a final volume of 150 μL. Then the tissue solution was engrafted atop OBSCs at ∼0.5 mg tissue in 3 μL of PBS on each hemisphere of the slice. The OBSC engrafted with patient tumor tissue was incubated at 37°C with 5% CO2 and 95% humidity. The BSM was changed after 24h and subsequently every 3 days. Tumor treatment studies were executed as described above for tumor lines. The viability of the patient tissue was measured by an AMI optical imaging system with the addition of 1.5 mg/mL luciferin underneath the culture insert.\nas §3, §4, §5"}, "[3]": {"test_system": "LN229 (established GBM line)", "experiment": "Drug screening of LN229 tumor foci on OBSCs", "experimental": "as §1, §2, §3, §4, §5"}, "[4]": {"test_system": "GBM8 (high-passage patient-derived GBM line)", "experiment": "Drug screening of GBM8 tumor foci on OBSCs", "conditions": "GBM8 on OBSCs", "experimental": "as §1, §2, §3, §4, §5"}, "[5]": {"test_system": "U373WT (wild-type established GBM line)", "experiment": "Drug screening of U373WT tumor foci on OBSCs", "conditions": "U373 WT on OBSCs", "experimental": "as §1, §2, §3, §4, §5"}, "[6]": {"test_system": "MB231Br (breast cancer metastasis to brain)", "experiment": "Drug screening of MB231Br tumor foci on OBSCs", "conditions": "MB231BR on OBSCs"}, "[7]": {"test_system": "7 cell lines (MB231Br, LN229, U373WT, U373KO, GBM8, MS21, PDIPG)", "experiment": "Drug screening on OBSCs, summary over the panel of seven tumor lines", "conditions": "number of lines responding", "experimental": "as §1, §2, §3, §4, §5"}, "[8]": {"test_system": "MS21 (low-passage patient-derived GBM line)", "experiment": "Drug screening of MS21 tumor foci on OBSCs", "conditions": "MS21 on OBSCs", "experimental": "as §1, §2, §3, §4, §5"}, "[9]": {"test_system": "U373KO (RAD18 knockout of U373WT via CRISPR)", "experiment": "Drug screening of U373KO tumor foci on OBSCs", "conditions": "U373 KO on OBSCs", "experimental": "as §1, §2, §3, §4, §5"}, "[10]": {"conditions": "area under the dose-response curve, trapezoidal rule"}, "[11]": {"conditions": "dose required to kill 10% of the tumor"}, "[12]": {"conditions": "dose required to kill 25% of the tumor"}, "[13]": {"conditions": "dose required to kill 50% of the tumor, read-out: EC50"}, "[14]": {"conditions": "dose required to kill 75% of the tumor"}, "[15]": {"conditions": "dose required to kill 90% of the tumor, read-out: EC90"}, "[16]": {"conditions": "dose required to kill 50% of the tumor"}, "[17]": {"conditions": "dose required to kill 90% of the tumor"}}}
{"smiles": "N.N.O=C([O-])C1(C(=O)[O-])CCC1.[Pt+2]", "note": "[Carboplatin]", "values": [{"measurement": "Killing at highest dose", "setting": "[1]", "result": "1.00E+00 fraction of tumor population killed"}, {"measurement": "AUC", "setting": "[1]; [10]", "result": "1.79E+02"}, {"measurement": "EC10", "setting": "[1]; [11]", "result": 4.76, "unit": "µM"}, {"measurement": "EC25", "setting": "[1]; [12]", "result": 20, "unit": "µM"}, {"measurement": "EC50", "setting": "[1]; [13]", "result": 86.1, "unit": "µM"}, {"measurement": "EC75", "setting": "[1]; [14]", "result": 211, "unit": "µM"}, {"measurement": "EC90", "setting": "[1]; [15]", "result": 583, "unit": "µM"}, {"measurement": "Slope", "setting": "[1]; slope through the EC50", "result": "-3.59E-03"}, {"measurement": "DSS (drug sensitivity score)", "setting": "[2]", "result": 88}, {"measurement": "Killing at highest dose", "setting": "[3]", "result": "1.00E+00 fraction of tumor population killed"}, {"measurement": "AUC", "setting": "[3]; [10]", "result": "1.22E+02"}, {"measurement": "EC10", "setting": "[3]; [11]", "result": 4.17, "unit": "µM"}, {"measurement": "EC25", "setting": "[3]; [12]", "result": 14, "unit": "µM"}, {"measurement": "EC50", "setting": "[3]; [16]", "result": 133, "unit": "µM"}, {"measurement": "EC75", "setting": "[3]; [14]", "result": 193, "unit": "µM"}, {"measurement": "EC90", "setting": "[3]; [17]", "result": 229, "unit": "µM"}, {"measurement": "Slope", "setting": "[3]; slope through the EC50", "result": "-4.20E-03"}, {"measurement": "Killing at highest dose", "setting": "[4]", "result": "1.00E+00 fraction of tumor population killed"}, {"measurement": "AUC", "setting": "[4]; [10]", "result": "1.03E+01"}, {"measurement": "EC10", "setting": "[4]; [11]", "result": 1.16, "unit": "µM"}, {"measurement": "EC25", "setting": "[4]; [12]", "result": 2.91, "unit": "µM"}, {"measurement": "EC50", "setting": "[4]; [13]", "result": 5.81, "unit": "µM"}, {"measurement": "EC75", "setting": "[4]; [14]", "result": 8.72, "unit": "µM"}, {"measurement": "EC90", "setting": "[4]; [15]", "result": 26, "unit": "µM"}, {"measurement": "Slope", "setting": "[4]; slope through the EC50", "result": "-8.60E-02"}, {"measurement": "Killing at highest dose", "setting": "[5]", "result": "1.00E+00 fraction of tumor population killed"}, {"measurement": "AUC", "setting": "[5]; [10]", "result": "3.11E+02"}, {"measurement": "EC10", "setting": "[5]; [11]", "result": 93.2, "unit": "µM"}, {"measurement": "EC25", "setting": "[5]; [12]", "result": 103, "unit": "µM"}, {"measurement": "EC50", "setting": "[5]; [16]", "result": 176, "unit": "µM"}, {"measurement": "EC75", "setting": "[5]; [14]", "result": 250, "unit": "µM"}, {"measurement": "EC90", "setting": "[5]; [17]", "result": 700, "unit": "µM"}, {"measurement": "Slope", "setting": "[5]; slope through the EC50", "result": "-3.40E-03"}, {"measurement": "Killing at highest dose", "setting": "[6]", "result": "1.00E+00 fraction of tumor population killed"}, {"measurement": "AUC", "setting": "[6]; [10]", "result": "1.89E+02"}, {"measurement": "EC10", "setting": "[6]; [11]", "result": 117, "unit": "µM"}, {"measurement": "EC25", "setting": "[6]; [12]", "result": 119, "unit": "µM"}, {"measurement": "EC50", "setting": "[6]; [16]", "result": 122, "unit": "µM"}, {"measurement": "EC75", "setting": "[6]; [14]", "result": 125, "unit": "µM"}, {"measurement": "EC90", "setting": "[6]; [17]", "result": 213, "unit": "µM"}, {"measurement": "Slope", "setting": "[6]; slope through the EC50", "result": "-8.00E-02"}, {"measurement": "response / killing over the 7 cell lines", "setting": "[7]", "result": "robust response"}, {"measurement": "Killing at highest dose", "setting": "[8]", "result": "1.00E+00 fraction of tumor population killed"}, {"measurement": "AUC", "setting": "[8]; [10]", "result": "1.47E+02"}, {"measurement": "EC10", "setting": "[8]; [11]", "result": 59.7, "unit": "µM"}, {"measurement": "EC25", "setting": "[8]; [12]", "result": 71.8, "unit": "µM"}, {"measurement": "EC50", "setting": "[8]; [13]", "result": 91.9, "unit": "µM"}, {"measurement": "EC75", "setting": "[8]; [14]", "result": 157, "unit": "µM"}, {"measurement": "EC90", "setting": "[8]; [15]", "result": 215, "unit": "µM"}, {"measurement": "Slope", "setting": "[8]; slope through the EC50", "result": "-1.24E-02"}, {"measurement": "Killing at highest dose", "setting": "[9]", "result": "9.99E-01 fraction of tumor population killed"}, {"measurement": "AUC", "setting": "[9]; [10]", "result": "1.92E+02"}, {"measurement": "EC10", "setting": "[9]; [11]", "result": 9.09, "unit": "µM"}, {"measurement": "EC25", "setting": "[9]; [12]", "result": 125, "unit": "µM"}, {"measurement": "EC50", "setting": "[9]; [16]", "result": 172, "unit": "µM"}, {"measurement": "EC75", "setting": "[9]; [14]", "result": 219, "unit": "µM"}, {"measurement": "EC90", "setting": "[9]; [17]", "result": 248, "unit": "µM"}, {"measurement": "Slope", "setting": "[9]; slope through the EC50", "result": "-5.29E-03"}]}
